In patent US20120231450A1, “NOVEL PACEMAKER CELL” (priority 2009, published 2012):

How the values were obtained:
[1] = tested on: heart of a rat with atrioventricular block; assay: Intraperitoneal isoproterenol in rat with atrioventricular block implanted with pacemaker cells, electrocardiogram; assay type: in vivo; conditions: isoproterenol injected into the peritoneal cavity; AVB rat with implants; FIG. 19
Method: Male ICR rats of 10 weeks old were used. Rats were administered with a 0.2 ml injection of an anesthetic (0.2% pentobarbital, MiliQ). Breathing assistance was provided by a mechanical ventilator and electrocardiogram monitoring was performed. A thoracotomy was made using an electrosurgical knife and 15 μl of 30% glycerol was injected using a microsyringe, into a place where the pulmonary artery is attached to the heart. It was ascertained, from the electrocardiogram, whether AVE wave forms (decrease in the beating rate, independent P and QRS waves) appeared when the injection allowed the atrioventricular node to be damaged. If AVB wave forms were not identified, injection of glycerol was done again. Thirty minutes after AVB wave forms were identified, the chest was closed after AVB wave forms were identified on the electrocardiogram. The ventilator was removed from each of the rats, which were subjected to oxygen inhalation at 37° C. When recovered from anesthesia, the rats were returned back to their cages. Pacemaker cells which were GFP positive cells were selected and collected by cell sorting. The pacemaker cells were collected in conical tubes, and then centrifuged at 1,000 rpm for 5 minutes to form a cell pellet, which was then suspended in differentiation induction medium. […]

[2] = tested on: HCN4-GFP positive cells derived from H7 embryoid body (pacemaker cells); assay: Patch clamp measurement of the beating rate (spontaneous excitation) of the pacemaker cells; assay type: cell-based, human; conditions: for effect on beating rate of the pacemaker cells (in words): drug added to perfusion solution, patch clamp
Method: Patch clamp: Cells which had been collected by cell sorting were seeded on gelatin-coated, 8-mm diameter cover slips (Warner Instruments) in a number of about 1,500 cells. On or after the next day, a patch clump method was used to observe the automaticity and to analyze functions of ion channels.
The quantification of electrical activities by a patch clump method and of contraction by video recording was carried out.
The quantification of electrical activities by a patch clump method was carried out.
It was ascertained that the beating rate of the pacemaker cells according to the present invention was increased by means of isoproterenol, a sympathetic stimulant, and decreased by means of carbachol, a parasympathetic stimulant. In these experiments, a patch clamp method was used to measure directly electrical phenomena (spontaneous excitation) from the pacemaker cells. To the perfusion solution were added isoproterenol, a sympathetic stimulant, which increased [sic], and then carbachol, a parasympathetic stimulant, to examine their effects.

| Compound | ventricular rhythm resulting from the implanted pacemaker cells after isoproterenol [1] | beating rate in the presence of isoproterenol ([2]; 10^−5 M isoproterenol in perfusion solution, before: 54 beats per 10 seconds, FIG. 16) [beats per 10 seconds] | effect on beating rate of the pacemaker cells (in words) [2] | beating rate after washing out of isoproterenol ([2]; washout after 10^−5 M isoproterenol, FIG. 16) [beats per 10 seconds] | beating rate in the presence of carbachol ([2]; carbachol in perfusion solution, after isoproterenol washout, before: 17 beats per 10 seconds, FIG. 16) [beats per 10 seconds] | beating rate after washing out of carbachol ([2]; carbachol washed out, FIG. 16) [beats per 10 seconds] |
| --- | --- | --- | --- | --- | --- | --- |
| CC(C)NCC(O)c1ccc(O)c(O)c1 (stereo not shown) [isoproterenol] | accelerated (tachycardia) | 61 | increased | 45 |  |  |
| C[N+](C)(C)CCOC(N)=O [carbachol] |  |  | decreased |  | 8 | 14 |
